This is an account of results in ChEMBL document CHEMBL1130084, “Further definition of the D1 dopamine receptor pharmacophore: synthesis of trans-6,6a,7,8,9,13b-hexahydro-5H-benzo[d]naphth[2,1-b]azepines as rigid analogues of beta-phenyldopamine” (J Med Chem, 1997).

The target in assay [1] is D(1A) dopamine receptor (Rattus norvegicus) (UniProt P18901). The assay can be described thus: The compound is evaluated for the affinity towards Dopamine receptor D1, using [3H]- SCH 23390 as ligand on rat striatal membranes.
D(1A) dopamine receptor (Rattus norvegicus), sequence (P18901 whole entry): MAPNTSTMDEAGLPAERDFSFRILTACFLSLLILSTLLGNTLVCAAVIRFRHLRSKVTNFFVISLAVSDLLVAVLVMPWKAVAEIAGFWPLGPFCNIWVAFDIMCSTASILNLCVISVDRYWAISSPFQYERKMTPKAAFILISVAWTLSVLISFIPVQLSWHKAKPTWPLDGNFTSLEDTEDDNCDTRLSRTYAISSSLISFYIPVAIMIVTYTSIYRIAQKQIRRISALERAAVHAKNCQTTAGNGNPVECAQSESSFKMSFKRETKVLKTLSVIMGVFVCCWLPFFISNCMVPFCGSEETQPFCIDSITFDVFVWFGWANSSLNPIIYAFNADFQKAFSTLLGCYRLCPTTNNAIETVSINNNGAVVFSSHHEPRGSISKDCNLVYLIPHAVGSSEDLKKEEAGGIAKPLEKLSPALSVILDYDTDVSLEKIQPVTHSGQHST
For assay [2], the target named is D(2) dopamine receptor (Rattus norvegicus) (UniProt P61169). Nature of the assay: The compound is evaluated for the affinity towards Dopamine receptor D2, using [3H]-spiperone as ligand on rat striatal membranes.
D(2) dopamine receptor (Rattus norvegicus), sequence (P61169 whole entry): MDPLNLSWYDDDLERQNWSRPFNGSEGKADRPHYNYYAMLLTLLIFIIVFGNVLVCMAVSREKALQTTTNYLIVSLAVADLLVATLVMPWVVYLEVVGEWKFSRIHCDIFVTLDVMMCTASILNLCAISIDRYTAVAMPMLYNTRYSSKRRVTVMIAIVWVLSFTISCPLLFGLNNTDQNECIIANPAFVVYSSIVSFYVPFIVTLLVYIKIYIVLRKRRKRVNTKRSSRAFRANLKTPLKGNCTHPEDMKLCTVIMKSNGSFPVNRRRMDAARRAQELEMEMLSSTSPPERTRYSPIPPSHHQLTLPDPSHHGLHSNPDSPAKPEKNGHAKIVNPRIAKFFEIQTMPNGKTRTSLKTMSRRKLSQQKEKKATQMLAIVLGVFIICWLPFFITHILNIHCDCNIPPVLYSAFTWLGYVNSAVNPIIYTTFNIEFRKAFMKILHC

Regarding `CN1CCc2ccccc2[C@@H]2c3cc(O)c(I)cc3CC[C@H]21`, the K0.5 came to 1380 nM in assay [1] and 2960 nM in assay [2].
`CN1Cc2ccccc2[C@@H]2c3cc(O)c(Br)cc3CC[C@H]21`: in assay [1], the K0.5 stood at 322 nM.
In the case of `CN1CCc2ccccc2[C@@H]2c3cc(O)ccc3CC[C@H]21`, the K0.5 in assay [1] was 3950 nM; in assay [2] it was more than 10000 nM.
Regarding `Oc1cc2c(cc1O)[C@H]1c3ccccc3CN[C@@H]1CC2`, the K0.5 in assay [1] was determined as 2.8 nM.
Regarding `Oc1cc2c(cc1O)[C@H]1c3ccccc3CCN[C@@H]1CC2`, the K0.5 was determined as 2850 nM in assay [1] and 2220 nM in assay [2].
